Measured values taken from US20240390434A1, “PROBIOTIC ENHANCERS AND USES THEREOF” (Blis Technologies Limited, priority 2021, published 2024).

Experiments:
Type in all cases: cell-based
S. constellatus T29 = assay: Deferred antagonism assay, producer S. salivarius M18
Protocol: (§1) 1-2 producer strain colonies were transferred from a stock plate into 900 μL of suspension solution using a fresh cotton swab. Following this, suspensions were vortexed, and a sample was inoculated onto solid culture media using a fresh cotton swab. The inoculation was a streak that runs diametrically across the agar plate in a 1.5 cm wide strip. The plate was then incubated. Following incubation all visible colonies were removed by swabbing them from the agar surface. The plates were then treated with chloroform by dispensing 2 ml of chloroform onto 4 cm×4 cm piece of cloth and sealing the inverted agar plate on top for 30 minutes. The plates were then air dried for 30 minutes following chloroforming. 1-2 indicator strain colonies were then transferred from a stock plate into complementary suspension solution. The suspensions were then vortexed, and a sample was inoculated onto the same agar surface. These samples were streaked in a perpendicular direction to the initial producer streak.
(§2) Each indicator streak was prepared with fresh a suspension containing cells from a corresponding stock plate containing the indicator strain of interest. Indicator strains suspension samples were transferred using a fresh cotton swab. Results were measured by qualitatively reviewing the subsequent (if any) sizes of the zones of inhibition (ZOI) of indicator strain colony growth. A positive result is when there is a distinctive reduction or complete inhibition of indicator colony growth on the culture medium.
(§3) CABCa agar plates containing various concentrations of saccharide were prepared according to the methods described in Method 1. Producer strains were transferred from stock agar plates into 900 μL THB using a fresh cotton swab. A plastic spread plater was cut to approximately 1.2 cm width and then dipped into ethanol and left to air dry to ensure sterility. A 100 μL sample of the producer strain suspension was then dispensed onto the agar surface in a straight line running diametrically across the agar surface in (approximately) 20 μL spots. The spots were spaced approximately 1.5 cm apart from each other. The plastic spreader was then used to evenly distribute the spots across the agar surface in a 1.5 cm wide strip. This step was taken to ensure an even producer streak was inoculated onto the agar surface and provided an approximate measure of the initial inoculum concentration. Separate plastic spreaders were used for samples containing different producer strains. The samples were left to soak into the agar surface until there was no visible liquid remaining on the agar surface (approximately 20 minutes). Following producer streak preparations, the deferred antagonism assay protocol was followed as per Method 2. Results were recorded by measuring the size of the zone of inhibition (ZOI) in mm.
(§4) A dose response assay was carried out according to method 3 above, except a 1.2 cm streak was used. For the individual saccharide testing the pH of the producer streak was adjusted after the growth of producer to change the acidic conditions.
(§5) A deferred antagonism assay was conducted using K12 or M18 raw ingredient suspended in Todd Hewitt broth (THB). This was spread as a 1.2 cm streak containing approximately 1-2×10^6 cfu down the middle of a CABCa control or CABCa galactose supplemented test plate. After 18 hrs growth at 37° C. with 5% CO2, bacterial growth was removed, and the pH of the agar in the initial streak was measured and adjusted to a pH of 6.5-7.5 using 0.5M sodium carbonate pH11 before sterilizing the agar surface using chloroform vapor. Bacterial test strains were suspended in i-THB before being swabbed across the plates perpendicular to the initial streak. Plates were incubated for a further 18 hrs incubation at 37° C. with 5% CO2 before measuring (mm) any zones of inhibition for each test strain, […]

S. aureus A222 = assay: as above
Protocol: as §1, §2, §3, §4, §5

S. mutans OMZ175 = assay: as above
Protocol: as §1, §2, §3, §4, §5

indicator strains = assay: Deferred antagonism assay, producer S. salivarius K12: total strains inhibited; settings: for Total number of strains inhibited / Total strains inhibited / Total stains inhibited: K12
Protocol: as §1, §2, §3, §4, §5

[1] = 1.25, 2.5, 5% w/v raffinose added
[2] = M18, Raffinose 1.7% wt, pH adjusted
[3] = M18, Raffinose 2.5% wt, pH adjusted
[4] = M18, Raffinose 3.3% wt, pH adjusted
[5] = M18, Raffinose 5% wt, pH adjusted
[6] = M18, Raffinose 10% wt, pH adjusted

OC[C@H]1O[C@H](OC[C@H]2O[C@H](O[C@]3(CO)O[C@H](CO)[C@@H](O)[C@@H]3O)[C@H](O)[C@@H](O)[C@@H]2O)[C@H](O)[C@@H](O)[C@H]1O [Raffinose, D-(+) Raffinose pentahydrate]
sensitivity of S. constellatus T-29 to M18 (S. constellatus T29; [1]): sensitive | Zone of inhibition S. constellatus T29 (S. constellatus T29; M18, Raffinose 1.7% wt): 22 mm | Zone of inhibition S. constellatus T29 (S. constellatus T29; [2]): 17 mm | Zone of inhibition S. constellatus T29 (S. constellatus T29; M18, Raffinose 2.5% wt): 18 mm | Zone of inhibition S. constellatus T29 (S. constellatus T29; [3]): 16 mm | Zone of inhibition S. constellatus T29 (S. constellatus T29; M18, Raffinose 3.3% wt): 18 mm | Zone of inhibition S. constellatus T29 (S. constellatus T29; [4]): 17 mm | Zone of inhibition S. constellatus T29 (S. constellatus T29; M18, Raffinose 5% wt): 16 mm | Zone of inhibition S. constellatus T29 (S. constellatus T29; [5]): 14 mm | Zone of inhibition S. constellatus T29 (S. constellatus T29; M18, Raffinose 10% wt): 12 mm | Zone of inhibition S. constellatus T29 (S. constellatus T29; [6]): 0 mm | sensitivity of S. aureus A222 to M18 (S. aureus A222; [1]): sensitive | Zone of inhibition S. aureus A222 (S. aureus A222; M18, Raffinose 1.7% wt): 20 mm | Zone of inhibition S. aureus A222 (S. aureus A222; [2]): 17 mm | Zone of inhibition S. aureus A222 (S. aureus A222; M18, Raffinose 2.5% wt): 20 mm | Zone of inhibition S. aureus A222 (S. aureus A222; [3]): 18 mm | Zone of inhibition S. aureus A222 (S. aureus A222; M18, Raffinose 3.3% wt): 18 mm | Zone of inhibition S. aureus A222 (S. aureus A222; [4]): 17 mm | Zone of inhibition S. aureus A222 (S. aureus A222; M18, Raffinose 5% wt): 16 mm | Zone of inhibition S. aureus A222 (S. aureus A222; [5]): 13 mm | Zone of inhibition S. aureus A222 (S. aureus A222; M18, Raffinose 10% wt): 0 mm | Zone of inhibition S. aureus A222 (S. aureus A222; [6]): 0 mm | sensitivity of S. mutans OMZ175 to M18 (S. mutans OMZ175; 0.5, 1.25, 2.5, and 5% w/v raffinose added): sensitive | Zone of inhibition S. mutans OMZ175 (S. mutans OMZ175; M18, Raffinose 1.7% wt): 22 mm | Zone of inhibition S. mutans OMZ175 (S. mutans OMZ175; [2]): 21 mm | Zone of inhibition S. mutans OMZ175 (S. mutans OMZ175; M18, Raffinose 2.5% wt): 20 mm | Zone of inhibition S. mutans OMZ175 (S. mutans OMZ175; [3]): 19 mm | Zone of inhibition S. mutans OMZ175 (S. mutans OMZ175; M18, Raffinose 3.3% wt): 21 mm | Zone of inhibition S. mutans OMZ175 (S. mutans OMZ175; [4]): 17 mm | Zone of inhibition S. mutans OMZ175 (S. mutans OMZ175; M18, Raffinose 5% wt): 19 mm | Zone of inhibition S. mutans OMZ175 (S. mutans OMZ175; [5]): 16 mm | Zone of inhibition S. mutans OMZ175 (S. mutans OMZ175; M18, Raffinose 10% wt): 0 mm | Zone of inhibition S. mutans OMZ175 (S. mutans OMZ175; [6]): 0 mm | Total number of strains inhibited (indicator strains; Raffinose 1.7% wt): 6 | Total number of strains inhibited (indicator strains; Raffinose 1.7% wt, pH adjusted): 5 | Total number of strains inhibited (indicator strains; Raffinose 2.5% wt): 7 | Total number of strains inhibited (indicator strains; Raffinose 2.5% wt, pH adjusted): 6 | Total number of strains inhibited (indicator strains; Raffinose 3.3% wt): 5 | Total number of strains inhibited (indicator strains; Raffinose 3.3% wt, pH adjusted): 5 | Total number of strains inhibited (indicator strains; Raffinose 5% wt): 6 | Total number of strains inhibited (indicator strains; Raffinose 5% wt, pH adjusted): 6 | Total number of strains inhibited (indicator strains; Raffinose 10% wt): 6 | Total number of strains inhibited (indicator strains; Raffinose 10% wt, pH adjusted): 6 | Total strains inhibited (indicator strains; saccharide 3.3% w/v): 3/3 | Total strains inhibited (indicator strains; saccharide range 2.5%-10% w/v): 3/3 | number of the indicators tested inhibited (indicator strains; Raffinose 1.7, 2.5, 3.3 and 5%, K12 or M18): at least 7 | inhibitory spectrum of K12 or M18 (indicator strains; Raffinose (2.5%)): inhibit several ENTR, dental and skin pathogens and S. salivarius strains

O=C[C@H](O)[C@@H](O)[C@@H](O)[C@H](O)CO [Galactose, D-galactose]
zone of inhibition at 0.5 % strength (S. constellatus T29; Streptococcus constellatus, T29, M18, Galactose 0.5% w/w, read-out: Size of zone inhibition normalised to control, S. constellatus T29): 0 mm | zone of inhibition at 1.25 % strength (S. constellatus T29; Streptococcus constellatus, T29, M18, Galactose 1.25% w/w, read-out: Size of zone inhibition normalised to control, S. constellatus T29): 8 mm | zone of inhibition at 1.7 % strength (S. constellatus T29; Streptococcus constellatus, T29, M18, Galactose 1.7% w/w, read-out: Size of zone inhibition normalised to control, S. constellatus T29): 0 mm | zone of inhibition at 2.5 % strength (S. constellatus T29; Streptococcus constellatus, T29, M18, Galactose 2.5% w/w, read-out: Size of zone inhibition normalised to control, S. constellatus T29): 16 mm | zone of inhibition at 3.3 % strength (S. constellatus T29; Streptococcus constellatus, T29, M18, Galactose 3.3% w/w, read-out: Size of zone inhibition normalised to control, S. constellatus T29): 22 mm | zone of inhibition at 5 % strength (S. constellatus T29; Streptococcus constellatus, T29, M18, Galactose 5% w/w, read-out: Size of zone inhibition normalised to control, S. constellatus T29): 17 mm | zone of inhibition at 0.5 % strength (S. aureus A222; Staphylococcus aureus, A222, M18, Galactose 0.5% w/w, read-out: Size of zone inhibition normalised to control, S. aureus A222): 10 mm | zone of inhibition at 1.25 % strength (S. aureus A222; Staphylococcus aureus, A222, M18, Galactose 1.25% w/w, read-out: Size of zone inhibition normalised to control, S. aureus A222): 6 mm | zone of inhibition at 1.7 % strength (S. aureus A222; Staphylococcus aureus, A222, M18, Galactose 1.7% w/w, read-out: Size of zone inhibition normalised to control, S. aureus A222): 0 mm | zone of inhibition at 2.5 % strength (S. aureus A222; Staphylococcus aureus, A222, M18, Galactose 2.5% w/w, read-out: Size of zone inhibition normalised to control, S. aureus A222): 0 mm | zone of inhibition at 3.3 % strength (S. aureus A222; Staphylococcus aureus, A222, M18, Galactose 3.3% w/w, read-out: Size of zone inhibition normalised to control, S. aureus A222): 6 mm | zone of inhibition at 5 % strength (S. aureus A222; Staphylococcus aureus, A222, M18, Galactose 5% w/w, read-out: Size of zone inhibition normalised to control, S. aureus A222): 0 mm | zone of inhibition at 0.5 % strength (S. mutans OMZ175; Streptococcus mutans, OMZ175, M18, Galactose 0.5% w/w, read-out: Size of zone inhibition normalised to control, S. mutans OMZ175): 16 mm | zone of inhibition at 1.25 % strength (S. mutans OMZ175; Streptococcus mutans, OMZ175, M18, Galactose 1.25% w/w, read-out: Size of zone inhibition normalised to control, S. mutans OMZ175): 0 mm | zone of inhibition at 1.7 % strength (S. mutans OMZ175; Streptococcus mutans, OMZ175, M18, Galactose 1.7% w/w, read-out: Size of zone inhibition normalised to control, S. mutans OMZ175): 0 mm | zone of inhibition at 2.5 % strength (S. mutans OMZ175; Streptococcus mutans, OMZ175, M18, Galactose 2.5% w/w, read-out: Size of zone inhibition normalised to control, S. mutans OMZ175): 0 mm | zone of inhibition at 3.3 % strength (S. mutans OMZ175; Streptococcus mutans, OMZ175, M18, Galactose 3.3% w/w, read-out: Size of zone inhibition normalised to control, S. mutans OMZ175): 6 mm | zone of inhibition at 5 % strength (S. mutans OMZ175; Streptococcus mutans, OMZ175, M18, Galactose 5% w/w, read-out: Size of zone inhibition normalised to control, S. mutans OMZ175): 0 mm | Total stains inhibited (indicator strains; Galactose 0.5% w/w): 5/6 | Total stains inhibited (indicator strains; Galactose 1.25% w/w): 5/7 | Total stains inhibited (indicator strains; Galactose 1.7% w/w): 4/7 | Total stains inhibited (indicator strains; Galactose 2.5% w/w): 4/7 | Total stains inhibited (indicator strains; Galactose 3.3% w/w): 2/7 | Total stains inhibited (indicator strains; Galactose 5% w/w): 0/7 | Total strains inhibited (indicator strains; saccharide 3.3% w/v): 0/3 | Total strains inhibited (indicator strains; saccharide range 0.83%-3.3% w/v): 1/3 | inhibitory activity (potency) and spectrum of Blis K12 and Blis M18 (indicator strains; only at 0.5% w/w Galactose): enhanced inhibitory activity
